What was measured:
[1] = biological target: T1, BRAF V600E (Homo sapiens, UniProt P15056, V600E); test: Cellular assay of target protein degradation, T-Rex 293 cells stably transfected with HA-BRAF_V600E (HA immunofluorescence, high content imaging); assay type: cell-based; settings: T-Rex 293 HA-BRAF V600E; for DC50: half maximal degradation, read-out: BRaf V600E DC50; for Dmax: maximum degradation observed
T1 construct: expressed in transfected cells
Outline: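 Cells are plated with 1 ng/mL doxycycline and grown 24 h. Compound is then added (final 1 μM–0.1 nM, 0.1% DMSO) for another 24 h at 37 °C, followed by fixing, HA immunostaining and imaging to obtain DC50 and Dmax.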

[2] = biological target: T2, BRAF G466V (Homo sapiens, UniProt P15056, G466V); test: Cellular assay of target protein degradation, T-Rex 293 cells stably transfected with HA-BRAF G466V (HA immunofluorescence, high content imaging); assay type: cell-based; settings: T-Rex 293 HA-BRAF G466V; for DC50: half maximal degradation, read-out: BRaf G466V DC50; for Dmax: maximum degradation observed
T2 construct: expressed in transfected cells
Outline: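 Read-out is HA immunofluorescence by high content imaging, with Hoechst and phalloidin co-staining, giving DC50 and Dmax as a percentage of control. Compound exposure lasts 24 hours at 37° C over 30 nM to 3 pM in 0.1% DMSO, with doxycycline-induced HA-BRAF G466V.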

T2 sequence (P15056 whole entry G466V): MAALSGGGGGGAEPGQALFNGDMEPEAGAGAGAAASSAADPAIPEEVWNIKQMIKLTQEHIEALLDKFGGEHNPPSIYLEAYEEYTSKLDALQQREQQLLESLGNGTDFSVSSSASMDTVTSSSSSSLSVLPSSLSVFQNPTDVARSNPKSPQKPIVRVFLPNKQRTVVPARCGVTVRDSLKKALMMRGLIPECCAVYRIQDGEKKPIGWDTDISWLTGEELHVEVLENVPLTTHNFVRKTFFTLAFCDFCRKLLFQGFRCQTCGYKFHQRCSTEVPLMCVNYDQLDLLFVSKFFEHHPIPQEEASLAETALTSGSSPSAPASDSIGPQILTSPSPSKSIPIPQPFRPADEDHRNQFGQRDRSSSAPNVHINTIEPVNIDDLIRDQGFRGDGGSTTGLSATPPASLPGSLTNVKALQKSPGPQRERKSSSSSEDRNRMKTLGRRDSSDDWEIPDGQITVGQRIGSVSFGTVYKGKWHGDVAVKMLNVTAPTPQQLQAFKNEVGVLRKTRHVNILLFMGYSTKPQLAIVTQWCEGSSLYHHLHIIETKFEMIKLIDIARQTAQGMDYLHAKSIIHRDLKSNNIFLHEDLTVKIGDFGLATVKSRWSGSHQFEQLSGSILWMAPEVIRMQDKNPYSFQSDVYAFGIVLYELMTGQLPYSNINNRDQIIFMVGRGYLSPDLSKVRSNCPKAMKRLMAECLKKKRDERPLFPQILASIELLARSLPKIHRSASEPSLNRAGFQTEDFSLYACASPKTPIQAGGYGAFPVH
T1 sequence (P15056 whole entry V600E): as the sequence (P15056 whole entry G466V) above, with V466G, V600E counted along it

Structure (SMILES)	DC50 [1] [nM]	Dmax [1] [%]	DC50 [2] [nM]	Dmax [2] [%]
O=C1CC[C@H](N2Cc3cc(C4CCN(CC5CCN(c6ccc(-c7cnc8[nH]cc(C(=O)c9c(Cl)ccc(NS(=O)(=O)N%10CC[C@@H](F)C%10)c9Cl)c8c7)cc6)CC5)CC4)ccc3C2=O)C(=O)N1 [Compound 267, (3R)-N-{2,4-dichloro-3-[5-(4-{4-[(4-{2-[(3S)-2,6-dioxopiperidin-3-yl]-1-oxo-2,3-dihydro-1H-isoindol-5-yl}piperidin-1-yl)methyl]piperidin-1-yl}phenyl)-1H-pyrrolo [2,3-b]pyridine-3-carbonyl]phenyl}-3-fluoropyrrolidine-1-sulfonamide]	5 to 50	35 to 70	1 to 10	35 to 70
O=C1CCC(N2Cc3cc(C4CCN(CC5CCN(c6ccc(-c7cnc8[nH]cc(C(=O)c9c(Cl)ccc(NS(=O)(=O)N%10CC[C@@H](F)C%10)c9Cl)c8c7)cc6)CC5)CC4)ccc3C2=O)C(=O)N1 (stereo partly drawn) [Compound 268, (3R)-N-[2,4-dichloro-3-(5-{4-[4-({4-[2-(2,6-dioxopiperidin-3-yl)-1-oxo-2,3-dihydro-1H-isoindol-5-yl]piperidin-1-yl}methyl)piperidin-1-yl]phenyl}-1H-pyrrolo [2,3-b]pyridine-3-carbonyl)phenyl]-3-fluoropyrrolidine-1-sulfonamide]	50 to 500	35 to 70	1 to 10	< 35
COc1ccc(NS(=O)(=O)N2CC[C@@H](F)C2)c(F)c1C(=O)c1c[nH]c2ncc(-c3ccc(N4CCC(CN5CCC(c6ccc7c(c6)CN(C6CCC(=O)NC6=O)C7=O)CC5)CC4)cc3)cc12 (stereo partly drawn) [Compound 269, (3R)-N-[3-(5-{4-[4-({4-[2-(2,6-dioxopiperidin-3-yl)-1-oxo-2,3-dihydro-1H-isoindol-5-yl]piperidin-1-yl}methyl)piperidin-1-yl]phenyl}-1H-pyrrolo[2,3-b]pyridine-3-carbonyl)-2-fluoro-4-methoxyphenyl]-3-fluoropyrrolidine-1-sulfonamide]	5 to 50	35 to 70	1 to 10	35 to 70
C[C@H]1[C@H](F)CCN1S(=O)(=O)Nc1ccc(F)c(C(=O)c2c[nH]c3ncc(-c4ccc(N5CCC(CN6CCC(c7ccc8c(c7)CN([C@H]7CCC(=O)NC7=O)C8=O)CC6)CC5)cc4)cc23)c1F [Compound 270, (2S,3R)-N-{3-[5-(4-{4-[(4-{2-[(3S)-2,6-dioxopiperidin-3-yl]-1-oxo-2,3-dihydro-1H-isoindol-5-yl}piperidin-1-yl)methyl]piperidin-1-yl}phenyl)-1H-pyrrolo [2,3-b]pyridine-3-carbonyl]-2,4-difluorophenyl}-3-fluoro-2-methylpyrrolidine-1-sulfonamide]	5 to 50	35 to 70	1 to 10	> 70
C[C@H]1[C@H](F)CCN1S(=O)(=O)Nc1ccc(F)c(C(=O)c2c[nH]c3ncc(-c4ccc(N5CCC(CN6CCC(c7ccc8c(c7)CN(C7CCC(=O)NC7=O)C8=O)CC6)CC5)cc4)cc23)c1F (stereo partly drawn) [Compound 271, (2S,3R)-N-[3-(5-{4-[4-({4-[2-(2,6-dioxopiperidin-3-yl)-1-oxo-2,3-dihydro-1H-isoindol-5-yl]piperidin-1-yl}methyl)piperidin-1-yl]phenyl}-1H-pyrrolo[2,3-b]pyridine-3-carbonyl)-2,4-difluorophenyl]-3-fluoro-2-methylpyrrolidine-1-sulfonamide]	5 to 50	35 to 70	1 to 10	> 70
O=C1CC[C@H](N2Cc3cc(C4CCN(CC5CCN(c6ccc(-c7cnc8[nH]cc(C(=O)c9c(F)ccc(NS(=O)(=O)N%10CC[C@@H](F)C%10)c9C(F)(F)F)c8c7)cc6)CC5)CC4)ccc3C2=O)C(=O)N1 [Compound 272, (3R)-N-{3-[5-(4-{4-[(4-{2-[(3S)-2,6-dioxopiperidin-3-yl]-1-oxo-2,3-dihydro-1H-isoindol-5-yl}piperidin-1-yl)methyl]piperidin-1-yl}phenyl)-1H-pyrrolo [2,3-b]pyridine-3-carbonyl]-4-fluoro-2-(trifluoromethyl)phenyl}-3-fluoropyrrolidine-1-sulfonamide]	50 to 500	35 to 70	1 to 10	35 to 70
O=C1CCC(N2Cc3cc(C4CCN(CC5CCN(c6ccc(-c7cnc8[nH]cc(C(=O)c9c(F)ccc(NS(=O)(=O)N%10CC[C@@H](F)C%10)c9C(F)(F)F)c8c7)cc6)CC5)CC4)ccc3C2=O)C(=O)N1 (stereo partly drawn) [Compound 273, (3R)-N-[3-(5-{4-[4-({4-[2-(2,6-dioxopiperidin-3-yl)-1-oxo-2,3-dihydro-1H-isoindol-5-yl]piperidin-1-yl}methyl)piperidin-1-yl]phenyl}-1H-pyrrolo[2,3-b]pyridine-3-carbonyl)-4-fluoro-2-(trifluoromethyl)phenyl]-3-fluoropyrrolidine-1-sulfonamide]	> 500	35 to 70	10 to 30	35 to 70
COc1ccc(NS(=O)(=O)N2CC[C@@H](F)C2)c(OC)c1C(=O)c1c[nH]c2ncc(-c3ccc(N4CCC(CN5CCC(c6ccc7c(c6)CN([C@H]6CCC(=O)NC6=O)C7=O)CC5)CC4)cc3)cc12 [Compound 274, (3R)-N-{3-[5-(4-{4-[(4-{2-[(3S)-2,6-dioxopiperidin-3-yl]-1-oxo-2,3-dihydro-1H-isoindol-5-yl}piperidin-1-yl)methyl]piperidin-1-yl}phenyl)-1H-pyrrolo [2,3-b]pyridine-3-carbonyl]-2,4-dimethoxyphenyl}-3-fluoropyrrolidine-1-sulfonamide]	> 500	–	> 30	–
COc1ccc(NS(=O)(=O)N2CC[C@@H](F)C2)c(OC)c1C(=O)c1c[nH]c2ncc(-c3ccc(N4CCC(CN5CCC(c6ccc7c(c6)CN(C6CCC(=O)NC6=O)C7=O)CC5)CC4)cc3)cc12 (stereo partly drawn) [Compound 275, (3R)-N-[3-(5-{4-[4-({4-[2-(2,6-dioxopiperidin-3-yl)-1-oxo-2,3-dihydro-1H-isoindol-5-yl]piperidin-1-yl}methyl)piperidin-1-yl]phenyl}-1H-pyrrolo[2,3-b]pyridine-3-carbonyl)-2,4-dimethoxyphenyl]-3-fluoropyrrolidine-1-sulfonamide]	> 500	–	> 30	–
CCc1c(NS(=O)(=O)N2CC[C@@H](F)C2)ccc(F)c1C(=O)c1c[nH]c2ncc(-c3ccc(N4CCC(CN5CCC(c6ccc7c(c6)CN(C6CCC(=O)NC6=O)C7=O)CC5)CC4)cc3)cc12 (stereo partly drawn) [Compound 276, (3R)-N-[3-(5-{4-[4-({4-[2-(2,6-dioxopiperidin-3-yl)-1-oxo-2,3-dihydro-1H-isoindol-5-yl]piperidin-1-yl}methyl)piperidin-1-yl]phenyl}-1H-pyrrolo[2,3-b]pyridine-3-carbonyl)-2-ethyl-4-fluorophenyl]-3-fluoropyrrolidine-1-sulfonamide]	< 5	35 to 70	< 1	35 to 70
C[C@@H]1CC[C@@H](C)N1S(=O)(=O)Nc1ccc(F)c(C(=O)c2c[nH]c3ncc(-c4ccc(N5CCC(CN6CCC(c7ccc8c(c7)CN([C@H]7CCC(=O)NC7=O)C8=O)CC6)CC5)cc4)cc23)c1F [Compound 277, (2R,5R)-N-{3-[5-(4-{4-[(4-{2-[(3S)-2,6-dioxopiperidin-3-yl]-1-oxo-2,3-dihydro-1H-isoindol-5-yl}piperidin-1-yl)methyl]piperidin-1-yl}phenyl)-1H-pyrrolo [2,3-b]pyridine-3-carbonyl]-2,4-difluorophenyl}-2,5-dimethylpyrrolidine-1-sulfonamide]	5 to 50	< 35	10 to 30	> 70

Reference: patent US12180193B2, “Accelerating fibrosarcoma protein degrading compounds and associated methods of use” (Arvinas Operations, Inc., priority 2020, dated 2024)
